Data reported in US8648086B2, “5,6-bicyclic heteroaryl-containing urea compounds as kinase inhibitors” (Ascepion Pharmaceuticals, Inc., priority 2009, dated 2014).

Legend:
c-Kit = molecular target: T1, c-Kit (Homo sapiens, UniProt P10721); experiment: KINOMEscan competition binding assay, c-Kit; settings: compound at 100 nM; lower number indicates stronger hit
T1 construct: purchased KINOMEscan service (Ambit Biosciences, San Diego)
Description: (§1) A standard competition binding assay can be used to test the ability of a compound of this invention on competing with both intended and unintended kinases in vitro. To screen a compound against a large number of human kinases, a competition binding assay with an active-site dependent binding technology was performed by KINOMEscan service (Ambit Biosciences, San Diego, Cal., USA). Three components were combined in this assay—DNA-tagged kinase, immobilized ligand, and the test compound. The ability of the test compound to compete with the immobilized ligand was measured by quantitative PCR of the DNA of the DNA tag. A number of the compounds of this invention were screened at the concentration of 100 nM by this binding assay, and the results were reported as “% Ctrl,” and the lower number indicates stronger “hit” in this matrix.

CSF-1R = molecular target: T2, CSF-1R (Homo sapiens, UniProt P07333); experiment: KINOMEscan competition binding assay, CSF-1R; settings: compound at 100 nM; lower number indicates stronger hit
T2 construct: purchased KINOMEscan service (Ambit Biosciences, San Diego)
T2 sequence (P07333 20-972): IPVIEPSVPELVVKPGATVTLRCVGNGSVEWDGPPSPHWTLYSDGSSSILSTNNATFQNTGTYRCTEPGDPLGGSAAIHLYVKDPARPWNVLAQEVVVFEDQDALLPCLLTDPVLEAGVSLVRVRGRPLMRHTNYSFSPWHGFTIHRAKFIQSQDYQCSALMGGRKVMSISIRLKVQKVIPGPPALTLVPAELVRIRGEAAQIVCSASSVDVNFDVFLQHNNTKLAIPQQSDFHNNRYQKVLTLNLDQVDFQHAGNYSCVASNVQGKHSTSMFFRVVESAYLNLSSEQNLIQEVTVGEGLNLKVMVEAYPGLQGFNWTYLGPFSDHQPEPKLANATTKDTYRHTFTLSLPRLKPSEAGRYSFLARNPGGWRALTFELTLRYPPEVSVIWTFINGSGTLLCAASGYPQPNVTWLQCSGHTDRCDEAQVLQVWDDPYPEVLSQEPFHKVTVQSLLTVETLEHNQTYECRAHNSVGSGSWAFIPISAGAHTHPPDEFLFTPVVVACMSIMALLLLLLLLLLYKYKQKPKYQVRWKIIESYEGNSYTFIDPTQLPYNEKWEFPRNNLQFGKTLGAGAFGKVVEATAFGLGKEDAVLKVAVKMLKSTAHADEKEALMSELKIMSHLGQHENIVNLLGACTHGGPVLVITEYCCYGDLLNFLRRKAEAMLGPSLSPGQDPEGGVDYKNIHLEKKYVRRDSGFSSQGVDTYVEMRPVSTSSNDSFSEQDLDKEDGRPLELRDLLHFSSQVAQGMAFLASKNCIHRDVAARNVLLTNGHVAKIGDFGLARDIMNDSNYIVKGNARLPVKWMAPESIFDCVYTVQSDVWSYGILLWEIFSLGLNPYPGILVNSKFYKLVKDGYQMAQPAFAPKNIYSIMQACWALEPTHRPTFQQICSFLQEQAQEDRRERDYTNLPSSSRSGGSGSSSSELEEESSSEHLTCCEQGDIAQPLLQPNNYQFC
Description: as §1

EPHA2 = molecular target: T3, EPHA2 (Homo sapiens, UniProt P29317); experiment: KINOMEscan competition binding assay, EPHA2; settings: compound at 100 nM; lower number indicates stronger hit
T3 construct: purchased KINOMEscan service (Ambit Biosciences, San Diego)
T3 sequence (P29317 24-976): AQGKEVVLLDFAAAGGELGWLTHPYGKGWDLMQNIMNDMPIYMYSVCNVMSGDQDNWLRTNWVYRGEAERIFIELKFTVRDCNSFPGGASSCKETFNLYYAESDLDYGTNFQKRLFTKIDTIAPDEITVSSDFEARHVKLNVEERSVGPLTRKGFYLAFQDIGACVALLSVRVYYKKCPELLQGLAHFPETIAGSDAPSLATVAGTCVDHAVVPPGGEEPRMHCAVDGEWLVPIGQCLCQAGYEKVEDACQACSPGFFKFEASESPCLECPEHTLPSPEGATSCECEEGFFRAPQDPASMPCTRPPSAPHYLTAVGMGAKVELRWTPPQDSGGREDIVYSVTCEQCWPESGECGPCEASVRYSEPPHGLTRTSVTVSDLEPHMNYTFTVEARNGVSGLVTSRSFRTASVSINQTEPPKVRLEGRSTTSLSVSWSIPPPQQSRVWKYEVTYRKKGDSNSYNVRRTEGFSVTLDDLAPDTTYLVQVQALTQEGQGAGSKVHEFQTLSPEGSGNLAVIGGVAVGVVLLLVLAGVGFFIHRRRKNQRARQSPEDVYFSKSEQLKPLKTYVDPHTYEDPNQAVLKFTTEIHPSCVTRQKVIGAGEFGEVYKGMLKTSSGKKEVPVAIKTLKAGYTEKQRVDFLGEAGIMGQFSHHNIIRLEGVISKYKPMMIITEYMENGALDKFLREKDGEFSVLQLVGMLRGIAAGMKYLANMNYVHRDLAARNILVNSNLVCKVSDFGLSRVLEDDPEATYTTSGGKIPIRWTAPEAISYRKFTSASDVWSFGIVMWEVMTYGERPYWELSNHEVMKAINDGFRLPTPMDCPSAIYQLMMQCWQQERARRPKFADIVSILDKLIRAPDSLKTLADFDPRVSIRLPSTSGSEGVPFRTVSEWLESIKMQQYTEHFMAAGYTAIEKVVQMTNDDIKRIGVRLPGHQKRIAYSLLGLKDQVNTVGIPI
Description: as §1

[1] = tested on: MDA-MB-231 human breast cancer cells; experiment: In vivo anti-tumor efficacy, MDA-MB-231 xenograft; settings: Breast cancer MDA-MB-231, nu/nu Balb/c mice
Description: (§2) Female (nu/nu) Balb/c athymic mice at 4-6 weeks of age were injected subcutaneously (s.c.) with MDA-MB-231 human breast cancer cells, A549 human non-small cell lung cancer cells, U87-MG human glioblastoma cells, PC-3 human prostate cancer cells, HT-29 human colon cancer, BEL-7404 human hepatocellular carcinoma, or MKN-45 human gastric cancer cells (ATCC, 5×10^6 cells suspended in 100 μl DMEM medium). Treatment was initiated after the tumor mass grown from s.c. implanted tumor cells reached a median volume of 200-400 mm^3. Mice were randomized into groups with three in each group for small-sample efficacy tests such that the median tumor volume is nearly equal among all groups. For large-sample efficacy tests, mice were randomized into groups with thirteen or fourteen in each group. Each group was treated either with compounds (dissolved in 2:1 mixture of PEG400 and 0.01N HCl (v/v)) or without compounds (vehicle only, 2:1 mixture of PEG400 and 0.01N HCl (v/v)) once per day at dose 12.5, 25, 50 or 100 mg/kg by oral gavage. Tumor volumes were assessed at least twice weekly by caliper measurement from the start of treatment. Tumor volume was calculated using the formula ½×L×W^2 (L: length of tumor's long axis, W: length of tumor's short axis). Treatment was applied for at least two weeks or until the tumor volume reaches a size of ˜2500 mm^3 or greater. Mice were humanly sacrificed after the experiment.
(§3) The efficacy of compounds in reducing tumor growth was assessed by the index Tumor Growth Inhibition (TGI). TGI for a given treatment period was calculated using the group mean tumor volumes according to the formula: TGI=100×(VVehicle—group−VTreatment—group)÷VVehicle—group wherein VVehicle—group represents the mean tumor volume for the group treated with vehicle and VTreatment—group represents the mean tumor volume of the group treated with a compound.

[2] = tested on: A549 human non-small cell lung cancer cells; experiment: In vivo anti-tumor efficacy, A549 xenograft; settings: Non-small cell lung cancer A549, nu/nu Balb/c mice, 50 mg/kg oral once per day, n = 2 × 3
Description: as §2, with “experiment. The efficacy of compounds in reducing tumor growth was assessed by the index Tumor Growth Inhibition (TGI). TGI for a given treatment period was calculated using the group mean tumor volumes according to the formula: TGI=100×(VVehicle—group−VTreatment—group)÷VVehicle—group wherein VVehicle—group represents the mean tumor volume for the group treated with vehicle and VTreatment—group represents the mean tumor volume of the group treated with a compound.” for “experiment.”

[3] = tested on: BEL-7404 human hepatocellular carcinoma; experiment: In vivo anti-tumor efficacy, BEL-7404 xenograft; settings: Liver cancer BEL-7404, nu/nu Balb/c mice, 50 mg/kg oral once per day, n = 2 × 3
Description: Female (nu/nu) Balb/c athymic mice at 4-6 weeks of age were injected subcutaneously (s.c.) with MDA-MB-231 human breast cancer cells, A549 human non-small cell lung cancer cells, U87-MG human glioblastoma cells, PC-3 human prostate cancer cells, HT-29 human colon cancer, BEL-7404 human hepatocellular carcinoma, or MKN-45 human gastric cancer cells (ATCC, 5×10^6 cells suspended in 100 μl DMEM medium). Treatment was initiated after the tumor mass grown from s.c. implanted tumor cells reached a median volume of 200-400 mm^3. Mice were randomized into groups with three in each group for small-sample efficacy tests such that the median tumor volume is nearly equal among all groups. […] Tumor volumes were assessed at least twice weekly by caliper measurement from the start of treatment. Tumor volume was calculated using the formula ½×L×W^2 (L: length of tumor's long axis, W: length of tumor's short axis). […]
as §3

PDGFRβ = molecular target: T4, PDGFRβ (Homo sapiens, UniProt P09619); experiment: PDGFRβ cell-based assay (phospho-PDGFRβ ELISA, transfected CHO cells); settings: compound at 100 nM, read-out: % PDGFRβ kinase activity remains
T4 construct: expressed in transfected cells; host or cells: CHO cells, pcDNA3.1 plasmid
T4 sequence (P09619 33-1106, species assumed): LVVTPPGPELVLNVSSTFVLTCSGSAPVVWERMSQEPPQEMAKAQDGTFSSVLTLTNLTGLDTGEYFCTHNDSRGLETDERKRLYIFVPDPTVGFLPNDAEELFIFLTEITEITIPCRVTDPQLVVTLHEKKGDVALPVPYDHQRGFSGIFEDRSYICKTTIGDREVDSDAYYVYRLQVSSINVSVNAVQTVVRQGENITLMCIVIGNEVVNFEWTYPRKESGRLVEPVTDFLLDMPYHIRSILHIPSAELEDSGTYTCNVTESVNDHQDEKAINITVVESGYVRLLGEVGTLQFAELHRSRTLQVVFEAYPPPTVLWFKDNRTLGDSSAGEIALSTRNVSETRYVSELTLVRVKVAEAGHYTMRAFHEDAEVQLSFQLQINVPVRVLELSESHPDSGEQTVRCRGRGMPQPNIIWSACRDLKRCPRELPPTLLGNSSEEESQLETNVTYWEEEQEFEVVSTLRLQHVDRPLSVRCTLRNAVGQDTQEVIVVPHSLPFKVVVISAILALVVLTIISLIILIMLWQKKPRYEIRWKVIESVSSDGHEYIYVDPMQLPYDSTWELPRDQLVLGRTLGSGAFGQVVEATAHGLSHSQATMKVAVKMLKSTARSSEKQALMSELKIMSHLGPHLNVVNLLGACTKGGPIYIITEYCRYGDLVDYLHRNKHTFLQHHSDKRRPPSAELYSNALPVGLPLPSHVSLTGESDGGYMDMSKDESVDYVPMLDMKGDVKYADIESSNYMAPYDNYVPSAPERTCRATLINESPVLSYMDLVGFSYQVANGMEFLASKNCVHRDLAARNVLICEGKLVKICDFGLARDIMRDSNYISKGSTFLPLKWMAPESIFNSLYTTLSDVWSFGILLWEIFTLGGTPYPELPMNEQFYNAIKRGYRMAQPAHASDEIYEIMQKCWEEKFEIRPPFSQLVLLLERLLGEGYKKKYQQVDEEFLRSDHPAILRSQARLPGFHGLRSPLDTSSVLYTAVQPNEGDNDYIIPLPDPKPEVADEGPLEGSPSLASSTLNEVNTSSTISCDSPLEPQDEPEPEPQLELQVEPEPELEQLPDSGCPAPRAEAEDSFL
Method in brief: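 CHO cells transiently transfected with full-length human PDGFRβ, serum-starved overnight in DMEM, then treated 2 h with compound (0.5–500 nM) before 20% FBS stimulation. Lysates of ~5×10^5 cells analysed by sandwich ELISA for phospho- and total PDGFRβ with streptavidin-HRP chemiluminescent detection.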

[4] = 50 mg/kg oral once per day, n = 2 × 3

T1 sequence (P10721 26-976): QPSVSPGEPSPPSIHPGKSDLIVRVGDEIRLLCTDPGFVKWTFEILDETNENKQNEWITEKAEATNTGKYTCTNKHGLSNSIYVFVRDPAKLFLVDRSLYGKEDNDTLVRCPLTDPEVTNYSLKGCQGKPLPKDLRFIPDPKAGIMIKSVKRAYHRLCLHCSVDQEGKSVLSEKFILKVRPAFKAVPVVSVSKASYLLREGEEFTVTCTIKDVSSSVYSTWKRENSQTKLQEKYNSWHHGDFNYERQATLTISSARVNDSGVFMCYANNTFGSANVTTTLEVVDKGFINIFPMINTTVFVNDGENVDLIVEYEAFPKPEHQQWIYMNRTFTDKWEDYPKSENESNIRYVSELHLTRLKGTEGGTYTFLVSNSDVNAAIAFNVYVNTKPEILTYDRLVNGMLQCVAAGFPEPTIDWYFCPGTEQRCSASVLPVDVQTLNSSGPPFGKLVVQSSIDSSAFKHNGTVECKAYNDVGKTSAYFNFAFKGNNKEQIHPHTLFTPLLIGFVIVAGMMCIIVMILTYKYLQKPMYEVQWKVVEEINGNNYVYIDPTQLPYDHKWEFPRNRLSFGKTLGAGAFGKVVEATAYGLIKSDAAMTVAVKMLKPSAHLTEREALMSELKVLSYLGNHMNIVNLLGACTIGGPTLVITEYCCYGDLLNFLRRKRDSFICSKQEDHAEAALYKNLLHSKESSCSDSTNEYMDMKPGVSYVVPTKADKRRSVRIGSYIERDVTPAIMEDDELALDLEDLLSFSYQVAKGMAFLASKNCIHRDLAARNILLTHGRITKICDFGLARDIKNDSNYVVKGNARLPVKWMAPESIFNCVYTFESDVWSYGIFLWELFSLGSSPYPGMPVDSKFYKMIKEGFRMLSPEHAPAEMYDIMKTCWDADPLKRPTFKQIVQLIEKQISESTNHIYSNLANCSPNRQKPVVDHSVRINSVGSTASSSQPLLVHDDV

## Cl.O=C(Nc1cc(Cl)ccc1F)Nc1cccc2c1ccn2Cc1ccnc2[nH]ccc12 [Example 56, 1-(2-Fluoro-5-chlorophenyl)-3-[1-(1H-pyrrolo[2,3-b]pyridin-4-ylmethyl)-1H-indol-4-yl]urea hydrochloride]
c-Kit
  c-Kit % Ctrl: 3.8 % Ctrl
CSF-1R
  CSF-1R % Ctrl: 3.4 % Ctrl
EPHA2
  EPHA2 % Ctrl: 12 % Ctrl
[1]; 12.5 mg/kg oral once per day, n = 6 × 14
  Tumor Growth Inhibition (TGI): A (the TGI is greater or equal to 50%)
[1]; 25 mg/kg oral once per day, n = 6 × 14
  Tumor Growth Inhibition (TGI): A (the TGI is greater or equal to 50%)
[1]; [4]
  Tumor Growth Inhibition (TGI): A (the TGI is greater or equal to 50%)
[1]; 50 mg/kg oral once per day, n = 6 × 14
  Tumor Growth Inhibition (TGI): A (the TGI is greater or equal to 50%)
[1]; 100 mg/kg oral once per day, n = 6 × 14
  Tumor Growth Inhibition (TGI): A (the TGI is greater or equal to 50%)
[2]
  Tumor Growth Inhibition (TGI): A (the TGI is greater or equal to 50%)
[3]
  Tumor Growth Inhibition (TGI): A (the TGI is greater or equal to 50%)

## Cl.O=C(Nc1cccc(C(F)(F)F)c1)Nc1cccc2c1ccn2Cc1ccnc2[nH]ccc12 [Example 51, 1-(3-Trifluoromethylphenyl)-3-[1-(1H-pyrrolo[2,3-b]pyridin-4-ylmethyl)-1H-indol-4-yl]urea hydrochloride]
PDGFRβ
  remaining activity at 0.1 µM: ≥ 70%
[1]; [4]
  Tumor Growth Inhibition (TGI): A (the TGI is greater or equal to 50%)
[2]
  Tumor Growth Inhibition (TGI): A (the TGI is greater or equal to 50%)
